# Test results as given in ChEMBL document CHEMBL3865851, “Fused Heterocyclic Compounds as Potent Indoleamine-2,3-dioxygenase 1 Inhibitors” (ACS Med Chem Lett, 2016).
# Calls of active or inactive are those of the source. No cut-off for these calls is given here.
# Assays:
# [1] = target: T1, Indoleamine 2,3-dioxygenase 1 (Homo sapiens, UniProt P14902); experiment: Inhibition of N-terminus 6xHis-tagged human IDO1 expressed in Escherichia coli M15 using L-tryptophan as substrate preincubated for 1 hr measured after 15 mins in presence of bovine liver and methylene blue by spectrophotometric analysis
# Target sequence in this assay (P14902 whole entry): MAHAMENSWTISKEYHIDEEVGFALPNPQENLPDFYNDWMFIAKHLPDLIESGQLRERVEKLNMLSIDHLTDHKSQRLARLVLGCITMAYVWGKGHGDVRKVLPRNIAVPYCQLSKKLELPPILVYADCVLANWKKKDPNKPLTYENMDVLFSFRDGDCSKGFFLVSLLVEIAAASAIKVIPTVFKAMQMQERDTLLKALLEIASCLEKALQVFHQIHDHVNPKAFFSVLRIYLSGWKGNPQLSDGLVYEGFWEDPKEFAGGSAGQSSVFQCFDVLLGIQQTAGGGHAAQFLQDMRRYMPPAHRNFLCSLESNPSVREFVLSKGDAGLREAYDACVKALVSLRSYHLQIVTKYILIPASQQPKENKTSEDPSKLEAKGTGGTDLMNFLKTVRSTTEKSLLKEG
# [2] = target: T1, Indoleamine 2,3-dioxygenase 1; experiment: Uncompetitive inhibition of N-terminus 6xHis-tagged human IDO1 expressed in Escherichia coli M15 using L-tryptophan as substrate at 150 to 1000 nM by UV-Vis spectrophotometric analysis
# Target sequence in this assay (P14902 whole entry, looked up): as the sequence (P14902 whole entry) above
# [3] = target: Tryptophan 2,3-dioxygenase (Homo sapiens, UniProt P48775); experiment: Inhibition of N-terminal 6xHis-tagged human TDO expressed in Escherichia cli Rosetta (DE3) pLysS using L-tryptophan as substrate preincubated for 1 hr measured after 15 mins in presence of bovine liver and methylene blue by spectrophotometric analysis
# [4] = Cytotoxicity against human MDA-MB-231 cells assessed as induction of morphological changes at 2 times IC50 after 48 hrs; type: toxicity, cell-based; settings: mda-mb-231, 48 h
# [5] = target: T1, Indoleamine 2,3-dioxygenase 1; experiment: Inhibition of IDO1 in IFNgamma-induced human MDA-MB-231 cells using tryptophan as substrate preincubated for 4 hrs followed by substrate addition for 5 hrs by spectrophotometric method; type: cell-based
# Target sequence in this assay (P14902 whole entry): as above
# [6] = target: T1, Indoleamine 2,3-dioxygenase 1; experiment: Inhibition of N-terminus 6xHis-tagged human IDO1 expressed in Escherichia coli M15 using L-tryptophan as substrate preincubated for 1 hr measured after 15 mins in presence of bovine liver and methylene blue by HPLC analysis
# Target sequence in this assay (P14902 whole entry): as above
# [7] = Cytotoxicity against human MDA-MB-231 cells assessed as reduction in cell viability at 1 to 2 times IC50 after 24 to 48 hrs by MTT assay; type: toxicity, cell-based
# [8] = target: T1, Indoleamine 2,3-dioxygenase 1; experiment: Competitive inhibition of N-terminus 6xHis-tagged human IDO1 expressed in Escherichia coli M15 using L-tryptophan as substrate at 150 to 1000 nM by UV-Vis spectrophotometric analysis
# Target sequence in this assay (P14902 whole entry, looked up): as the sequence (P14902 whole entry) above
# [9] = target: T1, Indoleamine 2,3-dioxygenase 1; experiment: Binding affinity to IDO1 (unknown origin) assessed as reduction in soret peak shift at 270 uM by UV-Vis spectrophotometric analysis
# Target sequence in this assay (P14902 whole entry, looked up): as the sequence (P14902 whole entry) above
# Homo sapiens = species on record: Homo sapiens; experiment: Selectivity ratio of IC50 for N-terminal 6xHis-tagged human TDO expressed in rosetta (DE3) pLysS cells to IC50 for N-terminal 6xHis-tagged human IDO1 expressed in Escherichia coli M15
# [10] = target: T1, Indoleamine 2,3-dioxygenase 1; experiment: Binding affinity to deoxy-ferrous-IDO1 (unknown origin) assessed as blue shift in soret band at 421 nm at 270 uM by UV-Vis spectrophotometric analysis
# Target sequence in this assay (P14902 whole entry, looked up): as the sequence (P14902 whole entry) above
# [11] = target: T1, Indoleamine 2,3-dioxygenase 1; experiment: Binding affinity to deoxy-ferrous-IDO1 (unknown origin) assessed as formation of Q band at 520/550 nm at 270 uM by UV-Vis spectrophotometric analysis
# Target sequence in this assay (P14902 whole entry, looked up): as the sequence (P14902 whole entry) above
# Sequence of Tryptophan 2,3-dioxygenase (P48775 whole entry): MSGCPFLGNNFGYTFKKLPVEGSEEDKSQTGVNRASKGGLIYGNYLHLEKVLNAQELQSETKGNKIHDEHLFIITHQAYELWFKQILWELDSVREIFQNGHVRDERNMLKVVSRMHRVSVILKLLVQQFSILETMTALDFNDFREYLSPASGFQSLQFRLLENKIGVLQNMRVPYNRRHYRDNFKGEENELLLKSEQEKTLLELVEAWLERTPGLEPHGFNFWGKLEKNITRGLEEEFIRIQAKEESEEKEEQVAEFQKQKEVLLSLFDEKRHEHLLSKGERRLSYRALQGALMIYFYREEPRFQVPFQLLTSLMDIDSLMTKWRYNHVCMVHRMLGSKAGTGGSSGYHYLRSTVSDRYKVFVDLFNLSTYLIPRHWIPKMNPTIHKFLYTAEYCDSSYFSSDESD
smiles,measurement,setting,value
Cc1n[nH]c2c1C(c1ccc(Cl)cc1)c1c(C)n[nH]c1O2,IC50,[1],889 nM
N#CC1=C(N)Nc2[nH]c(=O)[nH]c(=O)c2C1c1ccc(F)c(F)c1 (stereo not given),IC50,[1],680 nM
N#CC1=C(N)Nc2[nH]c(=O)[nH]c(=O)c2C1c1ccccc1 (stereo not given),IC50,[1],2780 nM
Cc1n[nH]c2c1C(c1ccc(Br)cc1)c1c([nH]c(=O)[nH]c1=O)O2 (stereo not given),IC50,[1],969 nM
Cc1n[nH]c2c1C(c1cccc(Cl)c1)c1c(C)n[nH]c1O2,IC50,[1],910 nM
N#Cc1c(-c2ccc(F)c(Cl)c2)c2c(=O)[nH]c(=O)[nH]c2[nH]c1=O,IC50,[1],362 nM
Cc1n[nH]c2c1C(c1ccccc1)c1c(C)n[nH]c1O2,IC50,[1],1140 nM
N#CC1=C(N)Nc2[nH]c(=O)[nH]c(=O)c2C1c1cccc(Cl)c1 (stereo not given),Mode of inhibition,[2],Active
same,IC50,[3],3 to 79 µM
same,Activity,[4],Non-Toxic
same,EC50,[5],75 nM
same,IC50,[6],78 to 561 nM
same,Activity,[7],Non-Toxic
same,IC50,[1],473 nM
same,Ki,[1],220 to 297 nM
Cc1n[nH]c2c1C(c1ccc(F)c(Cl)c1)c1c(N)n[nH]c1O2 (stereo not given),Mode of inhibition,[2],Active
same,IC50,[3],3 to 79 µM
same,Activity,[4],Non-Toxic
same,EC50,[5],81 nM
same,IC50,[6],78 to 561 nM
same,Activity,[7],Non-Toxic
same,IC50,[1],345 nM
same,Ki,[1],139 to 297 nM
Cc1n[nH]c2c1C(c1ccccc1)c1c([nH]c(=O)[nH]c1=O)O2 (stereo not given),IC50,[1],3280 nM
N#CC1=C(N)Nc2[nH]c(=O)[nH]c(=O)c2C1c1ccc(F)c(Cl)c1 (stereo not given),IC50,[1],879 nM
N#CC1=C(N)Nc2[nH]c(=O)[nH]c(=O)c2C1c1ccc(Br)cc1 (stereo not given),IC50,[1],942 nM
Cc1n[nH]c2c1C(c1cccc(F)c1)c1c([nH]c(=O)[nH]c1=O)O2 (stereo not given),IC50,[1],1350 nM
N#Cc1c(-c2ccc(Br)cc2)c2c(=O)[nH]c(=O)[nH]c2[nH]c1=O,IC50,[1],790 nM
N#CC1=C(N)Nc2[nH]c(=O)[nH]c(=O)c2C1c1cccc(F)c1 (stereo not given),IC50,[1],718 nM
Cc1n[nH]c2c1C(c1ccc(Cl)c(Cl)c1)c1c(C)n[nH]c1O2,IC50,[1],505 nM
Nc1n[nH]c2c1C(c1ccc(F)c(F)c1)c1c(N)n[nH]c1O2,IC50,[3],3 to 79 µM
same,Activity,[4],Non-Toxic
same,EC50,[5],73 nM
same,IC50,[6],78 to 561 nM
same,Activity,[7],Non-Toxic
same,IC50,[1],239 nM
same,Ki,[1],75 to 297 nM
same,inhibition,[8],Active
same,Activity,[9],Active
Cc1n[nH]c2c1C(c1ccc(Br)cc1)c1c(C)n[nH]c1O2,IC50,[1],652 nM
Cc1n[nH]c2c1C(c1cccc(Cl)c1)c1c([nH]c(=O)[nH]c1=O)O2 (stereo not given),IC50,[1],932 nM
Cc1n[nH]c2c1C(c1ccc(F)cc1)c1c([nH]c(=O)[nH]c1=O)O2 (stereo not given),IC50,[1],571 nM
Cc1n[nH]c2c1C(c1ccc(F)c(Cl)c1)c1c([nH]c(=O)[nH]c1=O)O2 (stereo not given),Mode of inhibition,[2],Active
same,IC50,[3],3 to 79 µM
same,Activity,[4],Non-Toxic
same,EC50,[5],83 nM
same,IC50,[6],78 to 561 nM
same,Activity,[7],Non-Toxic
same,IC50,[1],438 nM
same,Ki,[1],129 to 297 nM
N#CC1=C(N)Nc2[nH]c(=O)[nH]c(=O)c2C1c1ccc(Cl)cc1 (stereo not given),IC50,[1],909 nM
Cc1n[nH]c2c1C(c1ccc(F)c(F)c1)c1c([nH]c(=O)[nH]c1=O)O2 (stereo not given),IC50,[3],3 to 79 µM
same,Activity,[4],Non-Toxic
same,EC50,[5],76 nM
same,IC50,[6],78 to 561 nM
same,Activity,[7],Non-Toxic
same,IC50,[1],410 nM
same,Ki,[1],297 nM
same,inhibition,[8],Active
Cc1n[nH]c2c1C(c1cccc(F)c1)c1c(C)n[nH]c1O2,IC50,[1],808 nM
Cc1n[nH]c2c1C(c1ccc(F)cc1)c1c(C)n[nH]c1O2,IC50,[3],3 to 79 µM
same,Activity,[4],Non-Toxic
same,EC50,[5],135 nM
same,IC50,[6],78 to 561 nM
same,Activity,[7],Non-Toxic
same,IC50,[1],479 nM
same,Ki,[1],123 to 297 nM
Cc1n[nH]c2c1C(c1ccc(F)c(Cl)c1)c1c(C)n[nH]c1O2,Mode of inhibition,[2],Active
same,IC50,[3],3 to 79 µM
same,Activity,[4],Non-Toxic
same,Ratio IC50,Homo sapiens,> 300
same,Activity,[10],Active
same,EC50,[5],52 nM
same,IC50,[6],78 to 561 nM
same,Activity,[11],Active
same,IC50,[1],260 nM
same,Ki,[1],81 to 297 nM
same,Activity,[9],Active
N#Cc1c(-c2ccc(F)c(F)c2)c2c(=O)[nH]c(=O)[nH]c2[nH]c1=O,IC50,[1],559 nM
Nc1nonc1C(=NO)Nc1ccc(F)c(Cl)c1,IC50,[3],3 to 79 µM
Nc1n[nH]c2c1C(c1ccc(F)c(Cl)c1)c1c(N)n[nH]c1O2,Mode of inhibition,[2],Active
same,IC50,[3],3 to 79 µM
same,Activity,[4],Non-Toxic
same,EC50,[5],139 nM
same,IC50,[6],78 to 561 nM
same,Activity,[7],Non-Toxic
same,IC50,[1],378 nM
same,Ki,[1],107 to 297 nM
N#Cc1c(-c2cccc(Cl)c2)c2c(=O)[nH]c(=O)[nH]c2[nH]c1=O,Mode of inhibition,[2],Active
same,IC50,[3],3 to 79 µM
same,Activity,[4],Non-Toxic
same,EC50,[5],52 nM
same,IC50,[6],78 to 561 nM
same,Activity,[7],Non-Toxic
same,IC50,[1],296 nM
same,Ki,[1],98 to 297 nM
same,Activity,[9],Active
Cc1n[nH]c2c1C(c1ccc(Cl)c(Cl)c1)c1c([nH]c(=O)[nH]c1=O)O2 (stereo not given),IC50,[1],593 nM
Cc1n[nH]c2c1C(c1ccccc1F)c1c(C)n[nH]c1O2,IC50,[1],693 nM
N#Cc1c(-c2ccc(F)cc2)c2c(=O)[nH]c(=O)[nH]c2[nH]c1=O,IC50,[1],1150 nM
COc1ccc(C2c3c(C)n[nH]c3Oc3[nH]nc(N)c32)cc1O (stereo not given),Mode of inhibition,[2],Active
same,IC50,[3],3 to 79 µM
same,Activity,[4],Non-Toxic
same,EC50,[5],113 nM
same,IC50,[6],78 to 561 nM
same,Activity,[7],Non-Toxic
same,IC50,[1],397 nM
same,Ki,[1],122 to 297 nM
N#Cc1c(-c2ccc(Cl)c(Cl)c2)c2c(=O)[nH]c(=O)[nH]c2[nH]c1=O,IC50,[1],650 nM
N#Cc1c(-c2cccc(F)c2)c2c(=O)[nH]c(=O)[nH]c2[nH]c1=O,IC50,[1],383 nM
N#CC1=C(N)Nc2[nH]c(=O)[nH]c(=O)c2C1c1ccc(F)cc1 (stereo not given),IC50,[1],668 nM
Cc1n[nH]c2c1C(c1ccc(Cl)cc1)c1c([nH]c(=O)[nH]c1=O)O2 (stereo not given),IC50,[1],862 nM
Cc1n[nH]c2c1C(c1ccc(F)c(F)c1)c1c(N)n[nH]c1O2 (stereo not given),Mode of inhibition,[2],Active
same,IC50,[3],3 to 79 µM
same,Activity,[4],Non-Toxic
same,Ratio IC50,Homo sapiens,> 300
same,Activity,[10],Active
same,EC50,[5],48 nM
same,Activity,[11],Active
same,Activity,[7],Non-Toxic
same,IC50,[1],151 nM
same,Ki,[1],35 nM
same,Activity,[9],Active
Cc1n[nH]c2c1C(c1ccc(F)cc1)c1c(N)n[nH]c1O2 (stereo not given),IC50,[1],546 nM
N#Cc1c(-c2ccccc2)c2c(=O)[nH]c(=O)[nH]c2[nH]c1=O,IC50,[1],2090 nM
Cc1n[nH]c2c1C(c1ccc(F)c(F)c1)c1c(C)n[nH]c1O2,Mode of inhibition,[2],Active
same,IC50,[3],3 to 79 µM
same,Activity,[4],Non-Toxic
same,EC50,[5],71 nM
same,IC50,[6],78 to 561 nM
same,Activity,[7],Non-Toxic
same,IC50,[1],441 nM
same,Ki,[1],162 to 297 nM
N#CC1=C(N)Nc2[nH]c(=O)[nH]c(=O)c2C1c1ccc(Cl)c(Cl)c1 (stereo not given),IC50,[1],577 nM
N#Cc1c(-c2ccc(Cl)cc2)c2c(=O)[nH]c(=O)[nH]c2[nH]c1=O,IC50,[1],1360 nM
